Data published in patent US20030166531A1, “Methods for modulating an immune response by modulating the interaction between CTLA4 and PP2A” (Genetics Institute, Inc., priority 2001, published 2003).

Assays:
[1] = accumulates in filter feeding organisms such as shellfish; cited from earlier work
[2] = molecular target: mutant K-less CTLA4 (K152A/K155A/K156A) expressed in doxycycline-induced Jurkat T cells (UniProt P16410); experiment: cell-based or functional assay
IL-2 gene transcription = experiment: Luciferase reporter assay under IL-2 promoter/enhancer in CTLA4-transfected Jurkat T cells stimulated with SEE and APCs; assay type: cell-based; settings: doxycycline-induced Jurkat cells, TCR-CTLA4 co-ligation with SEE and APCs, at maximal RLU response
Procedure: FIGS. 2A-2B depict the inhibition of IL-2 promoter/enhancer controlled luciferase reporter gene transcription by wild type (FIG. 2A) or K-less (FIG. 2B) CTLA4 molecules. Wild type or K-less CTLA4-transfected T cells were stimulated for 4 hours with antigen presenting cells and increasing concentrations of SEE antigen in the absence (upper data points) or presence (lower data points) of doxycycline (5 μg/ml). Cells were lysed and a luciferase assay was performed.
The panel of Jurkat T cells transfected with a regulatable, doxycycline sensitive CTLA4 cDNA has been previously described (Carreno, B. M. et al. (2000) J. Immunol. 165:1352-1356; Baroja, M. L. et al. (2000) J. Immunol. 164:49-55). A luciferase reporter cDNA under the control of the interleukin-2 promoter and enhancer elements was transfected in these cells, and clones isolated after limiting dilution were used for these experiments. A 0.45 lymphoblastoid B cell line that expresses HLA-DR1 and B7.1 was also used. Both cell lines were cultured under standard conditions.
Doxycycline treated Jurkat T cells (0.25×10^6 cells/group) were stimulated for 4 hours with 0.45 lymphoblastoid B cells (ratio 2:1) preincubated overnight with different concentrations of SEE. Luciferase assays were performed using the Promega Luciferase Assay System (Promega, Madison, Wis.). […]

Sequence of UniProt P16410 (P16410 36-223, stated change not applied): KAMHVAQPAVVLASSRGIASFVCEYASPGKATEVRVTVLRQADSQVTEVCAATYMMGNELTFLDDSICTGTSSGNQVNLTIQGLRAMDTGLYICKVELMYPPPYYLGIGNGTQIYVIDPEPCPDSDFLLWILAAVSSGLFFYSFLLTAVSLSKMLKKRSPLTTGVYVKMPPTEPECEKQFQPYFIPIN

For `C=C1[C@@H](O)[C@@H]2O[C@]3(CC[C@H](/C=C/[C@@H](C)[C@@H]4CC(C)=C[C@@]5(O[C@H](C[C@@](C)(O)C(=O)O)CC[C@H]5O)O4)O3)CC[C@H]2O[C@@H]1[C@@H](O)C[C@H](C)[C@H]1O[C@@]2(CCCCO2)CC[C@H]1C` [okadaic acid], the “toxicity when consumed by humans” value [1] is given as “causes diarrhetic shellfish poisoning”.

Compound “endogenous PP2AA (65 kD regulatory subunit of PP2A) of Jurkat T cells (from UniProt P30153 2-589)” has an inhibition of luciferase activity (IL-2 promoter/enhancer reporter) upon TCR-CTLA4 co-ligation [2] of 70 to 80%.

In the case of “wild type CTLA4: wild type CTLA4 expressed from a doxycycline-regulatable cDNA in transfected Jurkat T cells”, the “inhibition of luciferase activity (IL-2 promoter/enhancer reporter)” value (IL-2 gene transcription) is reported as 35-55%.
